Reference: patent US8106055B2, “Substituted amide compounds” (Gruenenthal GmbH, priority 2007, dated 2012)

What was measured:
[1] = biological target: T1, human bradykinin 1 receptor (B1R) (Homo sapiens, UniProt P46663); test: Functional investigation on the human bradykinin 1 receptor (B1R), Ca2+ FLIPR assay in CHO K1 hB1R cells; assay type: cell-based; details: B1R antagonism human; test substance 10 μM; Ca2+ FLIPR, CHO K1 hB1R cells
T1 construct: expressed in transfected cells; host or cells: CHO K1 cells
T1 sequence (P46663 1-353): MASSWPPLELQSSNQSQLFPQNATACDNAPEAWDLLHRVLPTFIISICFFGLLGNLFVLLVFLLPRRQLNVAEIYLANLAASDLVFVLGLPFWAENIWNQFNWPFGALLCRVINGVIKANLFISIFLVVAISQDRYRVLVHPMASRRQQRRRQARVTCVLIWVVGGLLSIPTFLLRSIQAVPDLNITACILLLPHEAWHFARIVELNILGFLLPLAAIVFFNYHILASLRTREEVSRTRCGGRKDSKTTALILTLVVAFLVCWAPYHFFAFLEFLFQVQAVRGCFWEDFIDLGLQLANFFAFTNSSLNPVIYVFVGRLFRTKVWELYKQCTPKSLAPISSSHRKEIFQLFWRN
Method in brief: (§1)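 Peak Ca2+-dependent fluorescence in B1R-transfected CHO K1 cells measures antagonism of an EC80 agonist challenge given 10-20 min after compound. Agonist is Lys-Des-Arg9-bradykinin for human, Des-Arg9-bradykinin for rat receptor.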

[2] = biological target: T2, bradykinin 1 receptor (B1R) of the rat (Rattus norvegicus, UniProt P97583); test: Functional investigation on the rat bradykinin 1 receptor (B1R), Ca2+ FLIPR assay in CHO K1 rB1R cells; assay type: cell-based; details: B1R antagonism rat; test substance 10 μM; Ca2+ FLIPR, CHO K1 rB1R cells
T2 construct: expressed in transfected cells; host or cells: CHO K1 cells
T2 sequence (P97583 1-337): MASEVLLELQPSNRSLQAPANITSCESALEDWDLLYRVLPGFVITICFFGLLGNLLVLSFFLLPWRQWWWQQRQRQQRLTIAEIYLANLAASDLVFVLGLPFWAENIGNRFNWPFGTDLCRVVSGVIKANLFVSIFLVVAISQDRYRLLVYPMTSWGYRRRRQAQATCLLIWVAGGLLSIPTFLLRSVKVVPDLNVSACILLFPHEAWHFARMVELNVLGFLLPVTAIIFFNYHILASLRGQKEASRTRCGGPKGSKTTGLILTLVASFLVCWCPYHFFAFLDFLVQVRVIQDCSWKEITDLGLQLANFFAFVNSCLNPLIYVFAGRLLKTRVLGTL
Method in brief: as §1

Row | Compound | B1R Ant. h [10 μM] % Inhibition [1] | B1R Ant. r [10 μM] % Inhibition [2]
1 | CN(C)C(c1cccc(F)c1)C1CCC(CCNC(=O)COC2CCN(S(=O)(=O)c3ccc(F)cc3)C2)CC1 (stereo not drawn) [Example 407] | 4% | 10%
2 | CN(C)C(c1ccc(F)cc1)C1CCC(NC(=O)COC2CCN(S(=O)(=O)c3ccccc3)CC2)CC1 (stereo not drawn) [Example 408] | −16% | 1%
3 | COc1ccc(S(=O)(=O)N2CCCC2COCC(=O)NCCC2CCC(C(c3ccc(F)cc3)N(C)C)CC2)cc1 (stereo not drawn) [Example 409] | 45% | 48%
4 | CN(C)C(c1ccc(Cl)cc1)C1CCC(CCNC(=O)COC2CCCCC2N(C)S(=O)(=O)c2ccc(Cl)c(Cl)c2)CC1 (stereo not drawn) [Example 410] | 1% | 6%
5 | CN(C)C(c1ccc(Cl)cc1)C1CCC(CNC(=O)COCCN(C)S(=O)(=O)c2ccc(OC(F)(F)F)cc2)CC1 (stereo not drawn) [Example 411] | 41% | 3%
6 | COc1cc(C)c(S(=O)(=O)N2CCC(OCC(=O)NCCC3CCC(C(c4ccc(Cl)cc4)N(C)C)CC3)C2)c(C)c1C (stereo not drawn) [Example 412] | 40% | −5%
7 | CCN(CCOCC(=O)NCCC1CCC(C(c2ccc(F)cc2)N(C)C)CC1)S(=O)(=O)c1c(C)cc(OC)c(C)c1C (stereo not drawn) [Example 413] | 96% | 83%
8 | COc1cc(C)c(S(=O)(=O)N(CCOCC(=O)NCC2CCC(C(c3cccc(F)c3)N(C)C)CC2)Cc2ccccc2)c(C)c1C (stereo not drawn) [Example 414] | 28% | 10%
9 | CN(C)C(CCc1ccccc1)C1CCC(CNC(=O)COCC2CCCN2S(=O)(=O)c2ccc(Cl)c(Cl)c2)CC1 (stereo not drawn) [Example 415] | 96% | 39%
10 | Cc1cc(C)c(S(=O)(=O)N(C)CCOCC(=O)NCCC2CCC(C(c3ccc(Cl)cc3)N(C)C)CC2)c(C)c1 (stereo not drawn) [Example 416] | 104% | 30%
11 | COc1cc(C)c(S(=O)(=O)N2CCCC(OCC(=O)NCC3CCC(C(c4ccc(F)cc4)N(C)C)CC3)C2)c(C)c1C (stereo not drawn) [Example 418] | 53% | 6%
12 | COc1cc(C)c(S(=O)(=O)N(CCOCC(=O)NC2CCC(C(c3cccc(F)c3)N(C)C)CC2)Cc2ccccc2)c(C)c1C (stereo not drawn) [Example 419] | 37% | 34%
13 | COc1cc(C)c(S(=O)(=O)N(C)CCOCC(=O)NC2CCC(C(c3ccc(F)cc3)N(C)C)CC2)c(C)c1 (stereo not drawn) [Example 422] | 104% | 104%
14 | CN(C)C(c1ccc(F)cc1)C1CCC(NC(=O)COC2CCCN(S(=O)(=O)c3ccccc3)C2)CC1 (stereo not drawn) [Example 423] | 4% | −20%
15 | CN(C)C(c1ccc(F)cc1)C1CCC(CNC(=O)COCC2CCCN(S(=O)(=O)c3ccccc3)C2)CC1 (stereo not drawn) [Example 424] | −12% | 20%
16 | CN(C)C(c1ccc(Cl)cc1)C1CCC(CCNC(=O)COCC2CCCN(S(=O)(=O)c3ccccc3)C2)CC1 (stereo not drawn) [Example 425] | 12% | 30%
17 | CN(C)C(c1ccc(Cl)cc1)C1CCC(CCNC(=O)COCCN(Cc2ccccc2)S(=O)(=O)c2ccccc2)CC1 (stereo not drawn) [Example 426] | −7% | 9%
18 | COc1cc(C)c(S(=O)(=O)N2CCC(OCC(=O)NCC3CCC(C(c4ccc(F)cc4)N(C)C)CC3)C2)c(C)c1C (stereo not drawn) [Example 427] | 76% | 8%
19 | COc1cc(C)c(S(=O)(=O)N2CCC(OCC(=O)NCC3CCC(C(c4ccc(Cl)cc4)N(C)C)CC3)C2)c(C)c1C (stereo not drawn) [Example 428] | 48% | 8%
20 | COc1cc(C)c(S(=O)(=O)N2CCN(CCOCC(=O)NCC3CCC(C(c4ccc(Cl)cc4)N(C)C)CC3)CC2)c(C)c1C (stereo not drawn) [Example 429] | 75% | 13%
21 | COc1ccc(S(=O)(=O)N2CCC(OCC(=O)NCCC3CCC(C(c4ccc(F)cc4)N(C)C)CC3)C2)cc1OC (stereo not drawn) [Example 430] | −7% | 21%
